{"source": "paper PMC3171802", "about": "(Chemistry & biology, 2011)", "origin": "cited, not measured here", "test_system": "Ba/F3 cells transformed to IL-3 independence by overexpression of PIM1 or PIM2", "conditions": "ref Pogacic et al., 2007"}
{"smiles": "CC(=O)c1cccc(-c2cnc3ccc(NCC4CC4)nn23)c1", "note": "[Compound K00135]", "values": [{"measurement": "survival of Ba/F3 cells transformed by PIM1 or PIM2", "result": "significantly impaired survival"}]}
